For the experiment, the target named is T1, GST-RIPK1 (recombinant GST-RIPK1 kinase domain (residues 1-327)) (Homo sapiens, UniProt Q13546).
T1 construct: recombinant GST-RIPK1 kinase domain (residues 1-327) enzyme produced from baculovirus-transfected Sf21 cells; host or cells: baculovirus-transfected Sf21 insect cells
T1 sequence (Q13546 1-327): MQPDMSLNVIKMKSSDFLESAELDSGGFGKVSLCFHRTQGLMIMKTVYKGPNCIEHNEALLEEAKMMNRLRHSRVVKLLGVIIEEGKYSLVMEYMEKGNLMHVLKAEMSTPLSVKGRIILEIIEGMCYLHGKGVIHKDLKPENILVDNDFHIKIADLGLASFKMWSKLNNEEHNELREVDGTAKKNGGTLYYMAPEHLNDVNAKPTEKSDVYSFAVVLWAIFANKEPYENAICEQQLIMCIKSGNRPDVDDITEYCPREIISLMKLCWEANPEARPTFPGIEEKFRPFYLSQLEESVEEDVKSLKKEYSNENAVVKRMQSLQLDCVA
Put plainly: RIPK1-ADP-Glo Enzymatic Assay. Format: biochemical. To be noted: ten-point titration, top compound concentration of 100000 nM; 25 nM GST-RIPK1, 300 μM ATP, 3 μM dephosphorylated-MBP; 30 min pre-incubation, 150 min reaction. The protocol:
RIPK1-ADP-Glo Enzymatic Assay
The enzymatic activity of RIPK1 is measured using an assay derived from ADP-Glo kit (TMPromega), which provides a luminescent-based ADP detection system. Specifically, the ADP generated by RIPK1 kinase is proportionally detected as luminescent signals in a homogenous fashion. In this context, the assessment of the inhibitory effect of small molecules (EC50) is measured by the effectiveness of the compounds to inhibit the ATP to ADP conversion by RIPK1.
In this assay, the potency (EC50) of each compound was determined from a ten-point (1:3 serial dilution; top compound concentration of 100000 nM) titration curve using the following outlined procedure. To each well of a white ProxiPlus 384 well-plate, 30 nL of compound (1% DMSO in final assay volume of 3 μL) was dispensed, followed by the addition of 2 μL of 1× assay buffer (25 mM Hepes 7.3, 20 mM MgCl2, 50 mM NaCl, 1 mM DTT, 0.005% Tween20, and 0.02% BSA) containing 37.5 nM of GST-RIPK1 (recombinant GST-RIPK1 kinase domain (residues 1-327) enzyme produced from baculovirus-transfected Sf21 cells: MW=62 kDa). Plates were placed in an ambient temperature humidified chamber for a 30 minutes pre-incubation with compound. Subsequently, each reaction was initiated by the addition of 1 μL 1× assay buffer containing 900 μM ATP and 3 μM dephosphorylated-MBP substrate. The final reaction in each well of 3 μL consists of 25 nM of GST-RIPK1, 300 μM ATP, and 3 μM dephosphorylated-MBP. Kinase reactions were allowed to proceed for 150 minutes prior to adding ADP-Glo reagents per Promega's outlined kit protocol. Dose-response curves were generated by plotting percent effect (% product conversion; Y-axis) vs. Log 10 compound concentrations (X-axis). EC50 values were calculated using a non-linear regression, four-parameters sigmoidal dose-response model.
In general terms: ADP-Glo first removes unused ATP, then detects ADP through luciferase.

The term EC50 denotes the concentration giving half of the maximal effect.

Regarding `N#Cc1ccc(F)c(OC2CC3(C2)O[C@@H]2CC[C@@H](c4ccccc4)N2C3=O)c1` (stereo partly drawn) [Example 8.3, 4-fluoro-3-{[(5′S,7a′R)-3′-oxo-5′-phenyltetrahydro-3′H-spiro[cyclobutane-1,2′-pyrrolo[2,1-b][1,3]oxazol]-3-yl]oxy}benzonitrile], the EC50 was found to be 0.02 µM.

`N#CCCc1ccc(COC2CC3(C2)OC2CC[C@@H](c4cnccn4)N2C3=O)cc1` (stereo partly drawn) [Example 18.95, 3-[4-({[(5′S)-3′-oxo-5′-(pyrazin-2-yl)tetrahydro-3′H-spiro[cyclobutane-1,2′-pyrrolo[2,1-b][1,3]oxazol]-3-yl]oxy}methyl)phenyl]propanenitrile]: the EC50 is 0.13 µM.

As to `O=C1N2C(CC[C@H]2c2cnccn2)OC12CC(OCc1ccc(-c3ccon3)cc1)C2` (stereo partly drawn) [Example 18.30, (5′S)-3-{[4-(1,2-oxazol-3-yl)phenyl]methoxy}-5′-(pyrazin-2-yl)tetrahydro-3′H-spiro[cyclobutane-1,2′-pyrrolo[2,1-b][1,3]oxazol]-3′-one], the EC50 was 0.045 µM.

On to `O=C1N2C(CC[C@H]2c2cnccn2)OC12CC(OCc1ccc(C(F)F)cn1)C2` (stereo partly drawn) [Example 18.11, (5′S)-3-{[5-(difluoromethyl)pyridin-2-yl]methoxy}-5′-(pyrazin-2-yl)tetrahydro-3′H-spiro[cyclobutane-1,2′-pyrrolo[2,1-b][1,3]oxazol]-3′-one], for which the EC50 came out at 0.089 µM.

`Cc1nc(O[C@H]2C[C@@]3(C2)O[C@@H]2CC[C@@H](c4cc(F)cc(F)c4)N2C3=O)c2cccn2n1` [Example 9.29, (1r,3R,5′S,7a′R)-5′-(3,5-difluorophenyl)-3-[(2-methylpyrrolo[2,1-f][1,2,4]triazin-4-yl)oxy]tetrahydro-3′H-spiro[cyclobutane-1,2′-pyrrolo[2,1-b][1,3]oxazol]-3′-one]: the EC50 amounted to 0.047 µM.

Consider `O=C1N2[C@@H](CC[C@H]2c2cnccn2)OC12CC(OCc1cccs1)C2` (stereo partly drawn) [Example 22.4, (5′S,7a′R)-5′-(pyrazin-2-yl)-3-(thiophen-2-ylmethoxy)tetrahydro-3′H-spiro[cyclobutane-1,2′-pyrrolo[2,1-b]oxazol]-3′-one], for which the EC50 came out at 0.146 µM.

On to `O=C1N2C(CC[C@H]2c2cnccn2)OC12CC(OCc1cc(-n3ccnc3)ccn1)C2` (stereo partly drawn) [Example 18.87], for which the EC50 was found to be 0.583 µM.

Turning to `O=C1N2C(CC[C@H]2c2cnccn2)OC12CC(OCc1cccc3cncc(F)c13)C2` (stereo partly drawn) [Example 18.21, (5′S)-3-[(4-fluoroisoquinolin-5-yl)methoxy]-5′-(pyrazin-2-yl)tetrahydro-3′H-spiro[cyclobutane-1,2′-pyrrolo[2,1-b][1,3]oxazol]-3′-one], the EC50 was 0.032 µM.

Turning to `O=C1N2[C@@H](CC[C@H]2c2cc(F)cc(F)c2)O[C@]12C[C@@H](Oc1cc(F)ncn1)C2` [Example 9.10, (1s,3S,5′S,7a′R)-5′-(3,5-difluorophenyl)-3-((6-fluoropyrimidin-4-yl)oxy)tetrahydro-3′H-spiro[cyclobutane-1,2′-pyrrolo[2,1-b]oxazol]-3′-one], the EC50 amounted to 0.035 µM.

In the case of `N#Cc1ccnc(O[C@H]2C[C@@]3(C2)O[C@@H]2CC[C@@H](c4ccccc4)N2C3=O)c1` [Example 10.4, 2-(((1r,3R,5′S,7a′R)-3′-oxo-5′-phenyltetrahydro-3′H-spiro[cyclobutane-1,2′-pyrrolo[2,1-b]oxazol]-3-yl)oxy)isonicotinonitrile], the EC50 worked out at 0.013 µM.

With `O=C1N2C(CC[C@H]2c2cnccn2)OC12CC(OCc1cnc3nncn3c1)C2` (stereo partly drawn) [Example 18.2, (5′S)-5′-(pyrazin-2-yl)-3-[([1,2,4]triazolo[4,3-a]pyrimidin-6-yl)methoxy]tetrahydro-3′H-spiro[cyclobutane-1,2′-pyrrolo[2,1-b][1,3]oxazol]-3′-one], the EC50 turned out to be 0.066 µM.

For `O=C1N2[C@@H](CC[C@H]2c2cnccn2)O[C@]12C[C@@H](OCc1ccc3oncc3c1)C2` [Example 18.59, (5′S)-3-[(1,2-benzoxazol-5-yl)methoxy]-5′-(pyrazin-2-yl)tetrahydro-3′H-spiro[cyclobutane-1,2′-pyrrolo[2,1-b][1,3]oxazol]-3′-one], the EC50 was 0.012 µM.

As for `N#Cc1ccc(OC2CC3(C2)O[C@@H]2CC[C@@H](c4ccccc4)N2C3=O)cn1` (stereo partly drawn) [Example 8.2, 5-{[(5′S,7a′R)-3′-oxo-5′-phenyltetrahydro-3′H-spiro[cyclobutane-1,2′-pyrrolo[2,1-b][1,3]oxazol]-3-yl]oxy}pyridine-2-carbonitrile], the EC50 is 0.251 µM.

For `Cn1cc(C2CCC3OC4(CC(Oc5cc(C#N)ncn5)C4)C(=O)N32)cn1` (single isomer, unassigned) [Example 6.1, 6-((((1r or s),3R,5′(S or R),7a′R)-5′-(1-methyl-1H-pyrazol-4-yl)-3′-oxotetrahydro-3′H-spiro[cyclobutane-1,2′-pyrrolo[2,1-b]oxazol]-3-yl)oxy)pyrimidine-4-carbonitrile], the EC50 came out at 93.4 µM.

Take `Cc1cn(-c2cc(OC3CC4(C3)O[C@@H]3CC[C@@H](c5cc(F)cc(F)c5)N3C4=O)ncn2)cn1` (stereo partly drawn) [Example 9.11, (5′S,7a′R)-5′-(3,5-difluorophenyl)-3-{[6-(4-methyl-1H-imidazol-1-yl)pyrimidin-4-yl]oxy}tetrahydro-3′H-spiro[cyclobutane-1,2′-pyrrolo[2,1-b][1,3]oxazol]-3′-one]: the EC50 was 0.021 µM.

As to `O=C1N2[C@@H](CC[C@H]2c2ccccc2)OC12CCC(Oc1cnccn1)CC2` (mixture of isomers) [Example 9.52, (5′S,7a′R)-5′-phenyl-4-[(pyrazin-2-yl)oxy]tetrahydro-3′H-spiro[cyclohexane-1,2′-pyrrolo[2,1-b][1,3]oxazol]-3′-one], the EC50 is 0.019 µM.

For the molecule `N#Cc1cc(OC2CC3(C2)O[C@@H]2CC[C@@H](c4cc(F)cc(F)c4)N2C3=O)ncc1F` (single isomer, unassigned) [Example 17.2, 2-((((1r or s),3S,5′S,7a′R)-5′-(3,5-difluorophenyl)-3′-oxotetrahydro-3′H-spiro[cyclobutane-1,2′-pyrrolo[2,1-b]oxazol]-3-yl)oxy)-5-fluoroisonicotinonitrile], the EC50 was 0.227 µM.

`O=C1N2[C@@H](CC[C@H]2c2cc(F)cc(F)c2)OC12CC(Oc1ccnc3c(F)cnn13)C2` (single isomer, unassigned) [Example 9.5]: the EC50 amounted to 0.328 µM.

For the molecule `O=C1N2C(CC[C@H]2c2cnccn2)OC12CC(OCc1ccc3cnccc3c1)C2` (stereo partly drawn) [Example 18.85, (5′S)-3-[(isoquinolin-6-yl)methoxy]-5′-(pyrazin-2-yl)tetrahydro-3′H-spiro[cyclobutane-1,2′-pyrrolo[2,1-b][1,3]oxazol]-3′-one], the EC50 turned out to be 0.079 µM.

Regarding `O=C1N2[C@@H](CC[C@H]2c2cnccn2)OC12CC(OCc1cccc(F)c1)C2` (single isomer, unassigned) [Example 22.8], the EC50 amounted to 0.035 µM.

`O=C1N2[C@@H](CC[C@H]2c2ccccc2)O[C@]12C[C@H](Oc1ncnn3cccc13)C2` [Example 9.24, (1r,3R,5′S,7a′R)-5′-phenyl-3-[(pyrrolo[2,1-f][1,2,4]triazin-4-yl)oxy]tetrahydro-3′H-spiro[cyclobutane-1,2′-pyrrolo[2,1-b][1,3]oxazol]-3′-one]: the EC50 stood at 0.011 µM.

Take `O=C1N2[C@@H](CC[C@H]2c2ccccc2)OC12CC(Oc1ccc3sncc3c1)C2` (stereo partly drawn) [Example 8.14, (5′S,7a′R)-3-[(1,2-benzothiazol-5-yl)oxy]-5′-phenyltetrahydro-3′H-spiro[cyclobutane-1,2′-pyrrolo[2,1-b][1,3]oxazol]-3′-one]: the EC50 came to 0.083 µM.

For `N#Cc1ccc2c(O[C@H]3C[C@@]4(C3)O[C@@H]3CC[C@@H](c5cc(F)cc(F)c5)N3C4=O)ncnn12` [Example 11.2, 4-(((1r,3R,5′S,7a′R)-5′-(3,5-difluorophenyl)-3′-oxotetrahydro-3′H-spiro[cyclobutane-1,2′-pyrrolo[2,1-b]oxazol]-3-yl)oxy)pyrrolo[2,1-f][1,2,4]triazine-7-carbonitrile], the EC50 is 0.016 µM.

Consider `COc1cncc(OC2CC3(C2)O[C@@H]2CC[C@@H](c4ccccc4)N2C3=O)c1` (stereo partly drawn) [Example 8.6, (5′S,7a′R)-3-[(5-methoxypyridin-3-yl)oxy]-5′-phenyltetrahydro-3′H-spiro[cyclobutane-1,2′-pyrrolo[2,1-b][1,3]oxazol]-3′-one], for which the EC50 came to 0.065 µM.

(Values after patent US20250154173A1 (Merck Sharp & Dohme LLC, priority 2023, published 2025).)
